Patent US20260038304A1, “METHOD AND SYSTEM FOR DETERMINING EFFICACY OF TREATMENT BY A PRE[…]” (priority 2023, published 2026)
Where a name gives a salt, the structure may show the parent alone.

Tests used:
Assay type in all cases: in vivo
larval zebrafish [1] = assay: Ketanserin bath application with or without psilocybin, independent component analysis of swim patterns; settings: Ketanserin 11.25 μM for 5 hours
Protocol: The right panel of FIG. 4M depicts latent feature (e.g., independent component) analysis of swim patterns after the sham treatment, Ketanserin exposure and psilocybin pretreatment before Ketanserin exposure;
Ketanserin has acute anxiogenic effects in adult zebrafish and rodents.
For Ketanserin experiments (FIG. 4M), the inventors performed a bath application of Ketanserin (11.25 μM) for 5 hours before behavioral tests. Psilocybin (2.5 μM) was added to the solution 1 hour after the start of Ketanserin treatment for a total duration of 4 hours before behavioral tests. Ketanserin (Sigma, S006) was prepared as a 0.5 mg/mL stock solution in E3 medium. Stock solutions were stored at −80° C. for long-term storage, and in-use aliquots were stored at −20° C. The desired concentration of Ketanserin was achieved by adding the stock solution to the E3 medium in which the fish swim.
(§1) For Independent Component Analysis (ICA) (FIGS. 2D, 3G, 4D, 4K and 4L), The inventors identified ICA weights and normalization factors in the dataset of 14,694 swimming episodes from N=22 fish for the small arena and N=20 fish for the large arena (FIG. 1) by using FastICA function in scikit-learn package (https://scikit-learn.org). The inventors subsequently applied the same ICA weights and normalization factors to other datasets. […]

larval zebrafish [2] = assay: Acute cold stress exposure (28° C. to 18° C., 5 minutes) after drug pretreatment, swim pattern analysis; settings: for stress-induced increase in swimming distance: cold shock, fluoxetine 4.6 μM 24 hours before; for stress-induced shift along the ICA2 (IC2) axis, turning/escape behavior: psilocybin 2.5 μM, ketamine 30 μM, fluoxetine 4.6 μM
Source text: As known in the art, acute administration of psilocybin has anxiolytic effects in humans. The inventors have thus tested whether acute stress exposure causes changes in fish's swim patterns in our setup and whether psilocybin can prevent such stress-induced behavioral changes. Various environmental stressors have been tested in larval zebrafish that trigger cortisol increase, including hypertonic water, acids, mechanical disturbance, social isolation, and heating or cooling shock.
As shown in FIG. 4I-E, the inventors also tested the effect of hypertonic stress for comparison.
The behavioral effects of other antidepressants was investigated and compared with those of psilocybin. Initially, the effect of ketamine was tested. Ketamine is a fast-acting antidepressant that can also suppress stress-induced behavioral changes in zebrafish. Sub-anesthetic concentration (30 μM) were used and bath application were performed for 30 minutes before the cold shock (FIG. 5A).
The effect of fluoxetine was also tested in the cold shock paradigm, using a concentration of 4.6 μM from previous zebrafish studies, and the effect of bath application was examined for 24 hours before the cold shock (FIG. 5D). […] However, fluoxetine had mixed effects on body kinematics after stress exposure. […] These mixed effects may be due to the induction of distorted swim patterns by fluoxetine that were observed (FIG. 5F, FIG. S3C) but also may reflect its lack of acute anxiolytic effects in humans.
The inventors classified the effects of psilocybin, ketamine and fluoxetine based on two behavioral measures: changes in swimming distances (FIG. 5G) and the ICA analysis of body kinematics (FIG. 5H). In the first type of classification (FIG. 5G), the action of tested drugs was classified based solely on swimming distances. […] Anxiolytic effects were calculated based on how much the drugs could revert the increase of swimming distance induced by stress exposure. In the second type of classification (FIG. 5H), two dimensions identified by the ICA analysis of body kinematics were used. […] Anxiolytic effects were calculated based on how much the drugs could revert the changes along the IC2 axis induced by stress exposure.
Just as osmotic changes to the water cause stress to the fish, changes in water temperature are also known to induce stress. Zebrafish's optimal environment is approximately 28° C., and so it has been shown that a short exposure of 5 minutes to 18° C. leads to increased cortisol levels and anxiety-like behaviors in larval zebrafish. Thus, the inventors utilized this established stress paradigm and exposed the fish to 18° C. E3 medium for 5 minutes. The inventors subsequently returned the fish to 28° C. E3 for a 5-minute recovery before testing (FIG. 4A). 18° C. E3 was achieved by mixing 4° C. E3 with 28° C. E3. Over the course of the 5-minute cold stimulus, the water temperature on average ranged from 18° C. to 20° C. The recovery in 28° C. E3 was done in an incubator, thus the temperature remained stable. Note that these procedures involve multiple occasions of transferring fish and replacing liquid around the fish, which themselves cause stress response due to mechanical disturbances. The effect of such procedural stress was present as the shifts of behavioral states along the IC2 axis in the data presented in FIGS. 4 and S4 compared to other datasets.
as §1

larval zebrafish [3] = assay: Wide-field behavioral tracking of spontaneous exploration and visually driven swimming after drug bath pretreatment; settings: for effects of pretreatment on swim patterns: fluoxetine 1 μM to 10 μM, fluvoxamine 2.5 μM to 25 μM, 24 hours incubation; for swim patterns and tail motions during visually driven behaviors: fluoxetine- and fluvoxamine-treated fish vs control, FIG. 3K; for spontaneous swimming distance: unstressed fish, ketamine 30 μM bath 30 minutes, fluoxetine 4.6 μM bath 24 hours
Source text: Reference is now made to FIG. 1A, which is a schematic diagram depicting an experimental setup, which may be used for evaluating behavior of an animal, according to some embodiments. […] This setup tracks the precise body kinematics of a single fish in an environment that is large (e.g., 90 mm) compared to the length of larval zebrafish (˜4 mm) at a high-resolution (e.g., higher than 1100×1100 pixels) and high-speed (e.g., 290 Hz). Data analysis pipelines further processed the images to identify the fish loci and body postures by using a deep neural network.
Different swim episodes can be visually separated in the depicted trajectories. Fish behavior was recorded at infrared wavelengths for 15 minutes while visual gratings stopped for 10 seconds (spontaneous swimming) and moved for 10 seconds (visually driven behavior) in cycles.
The inventors have used a custom-built zebrafish tracking system consisting of a high-speed camera, a macro lens and associated locking sleeve, an infrared filter for the lens, 880 nm LED illumination, a 100 mm×120 mm cold mirror, and a compact projector.
The inventors have tested the behavior of AB fish at the age of 5 Days Post Fertilization (DPF) on a chemical watch glass (125 mm) whose bottom surface was manually coated with a white spray. The inventors have imaged an area that spanned 90 mm (corresponding to 1100-1200 pixels) for each dimension with a resolution of […] per pixel at 290 Hz. […] Behavioral data presented in this study were acquired using at least three batches, as depicted in FIGS. 1, 2, 3, 4, 1SD, 2H, 2I, 2J, 3L, 4S, for at least two batches (FIG. 3J).
Until 5 DPF, both control and drug-exposed embryos were reared in 90-mm Petri dishes and maintained in a light-cycled incubator at 28.0° C. Media was changed every other day and no food was given before behavioral experiments. All behavioral experiments in this study were performed in E3 medium after washing out pretreated drugs.
Psilocybin solution (Sigma, P-097) was purchased as a stock solution concentration of 1.0 mg/mL in acetonitrile:water (1:1), ampule of 1 mL (3.52 mM). Stock solutions were stored at −80° C. for long-term storage, and in-use aliquots were stored at −20° C. Aliquots were thawed and vortexed immediately before use. Psilocybin was administered by incubating the fish in the psilocybin solution in 6-well plates. Desired concentrations of psilocybin were achieved by adding the stock solution to the E3 medium in which the fish swim. Concentrations ranging from 1 μM to 50 μM were tested in order to optimize the dosage.
The inventors determined that a dose of 2.5 μM for 4 h had the largest effect on spontaneous swimming compared to controls (refer to FIGS. 3E and 3J). Following the 4-hour exposure, fish were double washed in E3 medium, and remained in E3 medium until their behavior was examined. Behaviors were recorded for 15 minutes per fish.
Fluoxetine hydrochloride (Sigma, F918) was prepared as a 1 mg/ml (2.9 mM) stock solution in a conditioned E3 medium for zebrafish embryos. Fluvoxamine (Sigma, F2802) was prepared as a 10 mg/ml (23 mM) stock solution in a conditioned E3 medium. Desired Fluoxetine and Fluvoxamine concentrations were achieved by diluting the stock solution with conditioned E3 medium and storing the aliquots at −20° C. At 5 DPF, the fish were incubated as follows: Fluoxetine and Fluvoxamine were administered by incubating the fish in the solutions in 6-well plates. Desired concentrations of the two types of SSRIs were achieved by adding the stock solutions to the E3 medium in which the fish swim. Concentrations ranging from 1 μM to 10 μM for Fluoxetine and 2.5 μM to 25 μM for Fluvoxamine were tested in order to optimize the dosage. After 24 hours of incubation the fish, after being triple washed, were transferred to a new Petri dish, similar to the one they dwelled in before, containing only E3 medium. Behaviors were recorded at 6 DPF for 15 minutes per fish. […]

[4] = cold stress, classification of psilocybin, ketamine and fluoxetine

Structure (SMILES): O=C(c1ccc(F)cc1)C1CCN(CCn2c(=O)[nH]c3ccccc3c2=O)CC1 [Ketanserin]
- shift of behavioral states by bath application (larval zebrafish [1]): shifted behavioral states similarly to both cold and hypertonic stressors

Structure (SMILES): CNCCC(Oc1ccc(C(F)(F)F)cc1)c1ccccc1 (centres unmarked) [fluoxetine, Fluoxetine hydrochloride]
- stress-induced increase in swimming distance (larval zebrafish [2]; ketamine 30 μM 30 minutes): reversed
- reversal of the stress-induced increases in swim distances (FIG. 5G) (larval zebrafish [2]; [4]): only occurred with ketamine and fluoxetine
- stress-induced shift along the ICA2 (IC2) axis, turning/escape behavior (larval zebrafish [2]; cold stress): partially reversed and partially exacerbated
- effects of pretreatment on swim patterns (larval zebrafish [3]): suppressive effects
- swim patterns and tail motions during visually driven behaviors (larval zebrafish [3]): noticeable distortions in the swim patterns and low-frequency tail motions
- stimulatory/suppressive effects on basal behavior (larval zebrafish [3]; unstressed fish vs control, swimming distance and IC1 axis classifications consistent (FIG. 5G, 5H)): suppressive
- spontaneous swimming distance (larval zebrafish [3]): did not increase

Structure (SMILES): COCCCC/C(=N\OCCN)c1ccc(C(F)(F)F)cc1 [fluvoxamine, Fluvoxamine]
- effects of pretreatment on swim patterns (larval zebrafish [3]): suppressive effects
- swim patterns and tail motions during visually driven behaviors (larval zebrafish [3]): decrease amplitude of tail motions

Structure (SMILES): CNC1(c2ccccc2Cl)CCCCC1=O (centres unmarked) [ketamine]
- stress-induced increase in swimming distance (larval zebrafish [2]; ketamine 30 μM 30 minutes): reversed
- reversal of the stress-induced changes in body kinematics (FIG. 5H) (larval zebrafish [2]; cold stress, IC2 axis, classification of psilocybin, ketamine and fluoxetine): only occurred with ketamine and psilocybin
- reversal of the stress-induced increases in swim distances (FIG. 5G) (larval zebrafish [2]; [4]): only occurred with ketamine and fluoxetine
- stress-induced changes in swim patterns (zig-zag vs straight) during visually driven swimming (larval zebrafish [2]; cold stress, psilocybin 2.5 μM pretreatment, ketamine 30 μM 30 minutes): prevented the emergence of zig-zag swim patterns after cold shock and recovered straight swim patterns
- stress-induced shift along the ICA2 (IC2) axis, turning/escape behavior (larval zebrafish [2]; cold stress): significantly reversed
- spontaneous swimming distance (larval zebrafish [3]): did not increase

Structure (SMILES): CN(C)CCc1c[nH]c2cccc(OP(=O)(O)O)c12 [psilocybin, Psilocybin]
- most effective concentration for enhancing spontaneous exploration (larval zebrafish [3]; tested 1 μM to 50 μM, 30 minutes to 24 hours, optimal duration 4 h): 2.5 µM
